Reference: patent US12502369B2, “Methods of cancer treatment” (K-GEN, INC., priority 2015, dated 2025)
“Also recorded” adds a separate entry of the source. Read-outs that look alike come from different tables or passages of the source.

What was measured:
Assay type in all cases: cell-based
H727 = experiment: Proliferation assay (CellTiter Glo), H727; settings: for Top inhibition %: 96 hours
Procedure: (§1) Briefly, cells at a density of 1,000-10,000 cells/well were seeded in 96-well plates and incubated at 37′C for 24 hours. A series of 9 different concentrations of compound stocks (500×) were created by 3-fold serial dilution in DMSO. These compounds were further diluted in culture media and then added to cells so that the final DMSO concentration was 0.2%. After 96 hours of incubation, 50 μL of CellTiter Glo reagent (Promega) was added to each well and luminescence was measured after 10 minutes using EnVision (PerkinElmer). […] The dose range for most compounds was 4.6 nM-30 μM. The dose ranges for some compounds were adjusted downward to 0.46 nM-3 μM or 0.08 nM-0.5 μM or 0.03 nM-0.2 μM. Luminescence from cells treated with […] alone was set as Max and % of inhibition was calculated as follows: Inhibition %=(Max-Sample value)/Max*100. Data was analyzed using XL-fit software (ID Business Solutions Ltd.) and EC50, relative EC50, and % of top inhibition were calculated. The results are shown in Tables 3-6 for pancreatic cancer, lung cancer, colon/gastric cancer, and leukemia cell lines.

Panc2.03 = experiment: Proliferation assay (CellTiter Glo), Panc2.03; settings: for Top inhibition %: 96 hours
Procedure: as §1

BxPC-3 = experiment: Proliferation assay (CellTiter Glo), BxPC-3; settings: BxPC-3 (WT K-ras)
Procedure: as §1, with “calculated.” for “calculated. The results are shown in Tables 3-6 for pancreatic cancer, lung cancer, colon/gastric cancer, and leukemia cell lines.”
(§2) Other cancer cell lines having wild-type K-ras status and K-ras mutation at G12 were also screened using the PKC activator compounds. […] K-104 was tested in a range of 0.03 nM-0.2 μM. […] The dose ranges were adjusted downward to 0.46 nM-3 μM for K-102 and 0.08 nM-0.5 μM for K-103 for some cell lines.

HT29 = experiment: Proliferation assay (CellTiter Glo), HT29; settings: HT29 (WT K-ras)
Procedure: as §1, with “calculated.” for “calculated. The results are shown in Tables 3-6 for pancreatic cancer, lung cancer, colon/gastric cancer, and leukemia cell lines.”
as §2

LS180 = experiment: Proliferation assay (CellTiter Glo), LS180; settings: for Top inhibition %: 96 hours; for EC50: absolute EC50, 96 hours, read-out: Ab EC50
Procedure: as §1

CaMKii (Thr286) = experiment: CaMKii phosphorylation in pancreatic cancer cell lines, Western blot; settings: Panc1 or Panc2.13 cells; 24 or 48 hours; K-101A 0.5 and 2.5 μM, K-102 0.1 and 0.5 μM
Procedure: Cells were lysed in a protein lysis buffer (1 ml of 10×TNE [20 mL 1M Tris pH7.5; 30 mL 5M NaCl; 2 mL 0.5M EDTA; 48 mL d2H2O], 1 ml of 10% NP40, 7.7 mL of dH2O, 100 μL of 10× Protease inhibitors, 100 μL of 10× Phosphatase inhibitors, and 10 μl DTT). Protein quantification, SDS-PAGE, and Western blot procedures were performed as described in Example 2. […] The effect was more apparent at 48 hours. Phospho-CaMKii (T286) is a marker for activation of CaMKii kinase in the Wnt/Ca^2′ signaling pathway when K-Ras and CaM are dissociated (Wang et al., 2015, Cell. 163(5):1237-51).

PKCδ = PKCδ Tyr311 phosphorylation in A549, HCT116, SW620, Panc02.13 cells, Western blot; settings: 30 minutes
Procedure: (§3) Non-cancerous lung fibroblast cell line HFL-1 or cancer cells (2-8 million cells) were seeded in 10 cm dishes and grown overnight so that the cells were about 40-80% confluent before treatment with the compound. Cells were then treated with different drugs at indicated concentrations (see descriptions for FIG. 11 and FIG. 12) for 30 minutes. Cell lysate preparation, protein quantitation, SDS-PAGE, and Western blotting procedures are described in Example 2 and 4. Primary antibodies used in this Example and later Examples of this application are shown in Table A. Secondary antibodies Anti-mouse IgG HRP conjugate or Anti-rabbit IgG HRP conjugate (dilutions from 1:2000-1:10000) were used. Western blot membranes were scanned using Imagequant LAS4000 (GE). The results are shown in FIG. 11A and FIG. 11B for HFL-1 cells and FIG. 11C and FIG. 12 for A549 cells.

[1] = test system: K-Ras mutant pancreatic, lung, and colon cancer cell lines, leukemia cell lines; experiment: Proliferation assays, panel of cancer cell lines (summary statements)
Procedure: as §1

PKCμ = PKCμ phosphorylation in A549, HCT116, SW620, Panc02.13 cells, Western blot; settings: 30 minutes
Procedure: as §3, with “(GE).” for “(GE). The results are shown in FIG. 11A and FIG. 11B for HFL-1 cells and FIG. 11C and FIG. 12 for A549 cells.”

[2] = absolute EC50, 96 hours, read-out: Ab EC50
[3] = relative EC50, 96 hours, read-out: Re EC50

Structure (SMILES) | Top inhibition % (H727) [%] | EC50 (H727; [2]) [nM] | EC50 (H727; [3]) [nM] | Top inhibition % (Panc2.03) [%] | EC50 (Panc2.03; [2]) [nM] | EC50 (Panc2.03; [3]) [nM] | Top inhibition % (BxPC-3) [%] | Top inhibition % (HT29) [%] | Top inhibition % (LS180) [%] | EC50 (LS180) [nM] | EC50 (H727; Homo sapiens, NCI-H727, absolute EC50, 96 hours, read-out: Ab EC50) [nM] | EC50 (H727; Homo sapiens, NCI-H727, relative EC50, 96 hours, read-out: Re EC50) [nM] | EC50 (Panc2.03; Homo sapiens, Panc203, absolute EC50, 96 hours, read-out: Ab EC50) [nM] | EC50 (Panc2.03; Homo sapiens, Panc203, relative EC50, 96 hours, read-out: Re EC50) [nM] | EC50 (LS180; Homo sapiens) [nM] | phosphorylation on CaMKii at Thr286 (CaMKii (Thr286)) | PKCδ activation, phosphorylation at Tyr311 (PKCδ) | potency in proliferation inhibition relative to prostratin [1] | PKCμ activation, phosphorylation at Ser744/748 (PKCμ) | PKCμ activation, phosphorylation at Ser916 (PKCμ)
CC(=O)OCC1=C[C@H]2[C@@H]3C(C)(C)[C@]3(OC(C)=O)C[C@@H](C)[C@]2(O)C2C=C(C)C(=O)[C@@]2(O)C1 (stereo partly drawn) [Compound K-101E] | 49.1 | > 30000 | 620 | 36.5 | > 30000 | 1920 | 38.87 | 31.7 | 1.3 | > 30000 | – | – | – | – | – | – | – | – | – | –
CC(=O)O[C@@]12C[C@@H](C)[C@]3(O)C4C=C(C)C(=O)[C@@]4(O)CC(CO)=C[C@H]3[C@@H]1C2(C)C (stereo partly drawn) [Compound K-101A, Prostratin] | 48.3 | – | – | 27.0 | – | – | 40.11 | 12.8 | 4.4 | – | > 30000 | 190 | > 30000 | 120 | > 30000 | induced phosphorylation | observed for cell lines HCT116 and SW620 but not as significantly for cell lines A549 and Pan 02,13; also recorded: observed for cell lines HCT116 and SW620 but not as significantly for cell lines A549 and Panc02.13 | – | – | –
C/C=C(/C)C(=O)O[C@H]1C(C)=C[C@]23C(=O)[C@@H](C=C(CO)[C@@H](O)[C@]12O)[C@H]1[C@@H](C[C@H]3C)C1(C)C [Compound K-102, Ingenol-3-angelate, reference compound] | – | – | – | – | – | – | – | – | – | – | – | – | – | – | – | induced phosphorylation | observed for PKC activator insensitive cell lines HCT116 and SW620 but not as significantly for sensitive cell lines A549 and Pan 02,13; also recorded: observed for cell lines HCT116 and SW620 but not as significantly for cell lines A549 and Panc02.13 | more potent in proliferation inhibition | observed for all four cancer cell lines | observed primarily in cell lines A549 and Pan 02,13; also recorded: observed primarily in cell lines A549 and Panc02.13
